“Also recorded” adds a separate entry of the source. Where a name gives a salt, the structure may show the parent alone. Read-outs that look alike come from different tables or passages of the source. Blank lines part the entries; values can stand above or below the compound they belong to.
What was measured:
T2R4 [1] = target: T1, T2R4 (Homo sapiens, UniProt Q9NYW5); conditions: cited from earlier work
T1 sequence (Q9NYW5 1-299): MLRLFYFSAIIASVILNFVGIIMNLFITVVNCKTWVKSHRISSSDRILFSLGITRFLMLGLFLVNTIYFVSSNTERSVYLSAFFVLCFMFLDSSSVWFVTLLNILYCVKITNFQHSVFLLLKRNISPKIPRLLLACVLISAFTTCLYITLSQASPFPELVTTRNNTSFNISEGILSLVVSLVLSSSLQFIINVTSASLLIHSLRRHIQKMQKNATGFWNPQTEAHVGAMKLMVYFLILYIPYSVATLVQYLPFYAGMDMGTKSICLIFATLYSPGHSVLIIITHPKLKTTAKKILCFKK

T2R4 [2] = target: T1, T2R4; assay: Calcium mobilization assay, HEK293T cells stably expressing T2R4; format: cell-based; conditions: for Calcium mobilization by compound alone, T2R4 cells: 100 μM, compared to basal; for IC50: 3–200 μM AGE with quinine 1 mM, ± standard deviation, read-out: IC50, inhibition of quinine-activated T2R4 calcium mobilization
From the text: (§1) Human Embryonic Kidney (HEK293T) cell line was purchased from ATCC (Manassas, VA, USA). N-terminal FLAG epitope tagged human TAS2R4, TAS2R14, and TAS2R20 genes were codon-optimized for expression in mammalian cells and cloned into the KpnI-NotI site of pcDNA 3.1/Hygro (+) expression vector, and they were commercially synthesized (GenScript Inc., Piscataway, MA, USA) as previously described in Reference. We generated stable HEK293T cells expressing the above T2Rs in the selection medium containing 200 μg/mL hygromycin as described previously in References.
(§2) Calcium mobilization assays on each T2R expressing stable cells were performed by incubation with Fluo-4 NW dye containing probenecid (2.5 mM) for 35 min at 37 °C, followed by 35 min at room temperature. We then treated the cells either with the putative agonist alone or in combination with the AGE compound. To elucidate the action of AGEs on T2Rs, the cells were initially treated with a fixed concentration (100 μM). To determine IC50 for AGE compounds, the agonist concentration was kept constant whilst the AGE compound was added in a concentration dependent manner (3 μM to 200 μM). To determine EC50 for the agonists, we used a concentration range from 3 μM to 200 μM. The Flexstation-3 automated fluorescence microplate reader (Molecular devices) was used to measure the calcium at 525 nm emission, followed by excitation at 494 nm. ΔRFU (relative fluorescence units) were calculated by the system based on the difference between the maximum response and minimum response. We used HEK293T cells as the control for baseline subtraction. The data were collected from at least three independent experiments performed in triplicates and analyzed using GraphPad Prism V. 6.0 (GraphPadSoftware, La Jolla, CA, USA).

T2R14 = target: T2, T2R14 (Homo sapiens, UniProt Q9NYV8); assay: Calcium mobilization assay, HEK293T cells stably expressing T2R14; format: cell-based; conditions: for Calcium response by compound alone, T2R14 cells: 100 μM; for Inhibition of DPH-activated T2R14 calcium mobilization: 3–200 μM AGE with DPH 500 μM
T2 sequence (Q9NYV8 1-317): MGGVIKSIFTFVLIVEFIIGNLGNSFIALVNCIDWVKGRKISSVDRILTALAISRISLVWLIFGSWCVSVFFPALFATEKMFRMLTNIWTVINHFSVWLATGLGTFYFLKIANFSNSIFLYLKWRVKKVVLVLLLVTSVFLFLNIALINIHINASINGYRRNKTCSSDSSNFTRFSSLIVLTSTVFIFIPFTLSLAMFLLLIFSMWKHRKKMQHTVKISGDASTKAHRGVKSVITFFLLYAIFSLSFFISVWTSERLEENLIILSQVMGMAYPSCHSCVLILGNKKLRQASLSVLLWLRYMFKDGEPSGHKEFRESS
From the text: as §1, §2

T2R20 = target: T3, T2R20 (Homo sapiens, UniProt P59543); assay: Calcium mobilization assay, HEK293T cells stably expressing T2R20; format: cell-based; conditions: for Activation of T2R20 by compound alone: 100 μM; for EC50: 3–200 μM, ± standard deviation, read-out: EC50, activation of T2R20 calcium mobilization
T3 sequence (P59543 1-309): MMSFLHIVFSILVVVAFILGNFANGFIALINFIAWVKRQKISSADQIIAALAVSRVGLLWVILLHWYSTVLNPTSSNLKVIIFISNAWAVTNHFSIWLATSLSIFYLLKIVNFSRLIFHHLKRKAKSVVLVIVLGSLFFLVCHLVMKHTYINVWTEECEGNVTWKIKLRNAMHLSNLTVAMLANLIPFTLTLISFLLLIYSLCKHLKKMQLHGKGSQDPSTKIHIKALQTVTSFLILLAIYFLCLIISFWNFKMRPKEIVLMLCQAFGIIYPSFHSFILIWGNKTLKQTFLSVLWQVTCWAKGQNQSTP
From the text: as §1, §2

[3] = Solubility in calcium assay buffer; format: physicochemical; conditions: 1X HBSS, 20 mM HEPES
From the text: The cell-culture medium was composed of Dulbecco’s modified Eagle’s medium-F12 (Gibco, Life technologies, Carlsbad, CA, USA) supplemented with 10% heat-inactivated fetal bovine serum (Sigma, Burlington, MA, USA) and 1% penicillin-streptomycin (Gibco, Life technologies). We used hygromycin (Sigma Aldrich, Oakville, ON, Canada) in the selection medium to generate stable cells. All bitter compounds (quinine hydrochloride, diphenhydramine or DPH, and cromolyn) were purchased from Sigma Aldrich (Oakville, ON, Canada). We purchased glyoxal-derived lysine dimer (GOLD) and Nε-Carboxymethyl-L-lysine (CML) from PolyPeptide Laboratories (Strasbourg, France). All the compounds were freshly prepared using calcium assay buffer (1X HBSS, 20 mM HEPES) on the day of the experiment. Calcium sensitive dye Fluo-4 NW kit was purchased from Life technologies (Carlsbad, CA USA).

Compound: NCCCC[C@@H](C(=O)O)N(CC(=O)O)CC(=O)O [BCML, Nα, Nα-bis(carboxymethyl)-L-lysine]
IC50 (T2R4 [1]; read-out: IC50 against quinine, T2R4 antagonist): 0.06 µM

Compound: CC(NCCCC[C@H](N)C(=O)O)C(=O)O (some centres unmarked) [Nε-Carboxyethyl Lysine (CEL), Nε-Carboxyethyl Lysine]
Solubility in calcium assay buffer [3]: insoluble or only slightly soluble

Compound: C=C[C@H]1C[N@@]2CC[C@H]1C[C@H]2[C@H](O)c1ccnc2ccc(OC)cc12 [quinine, quinine hydrochloride]
EC50 (T2R4 [1]; agonist): 1000 µM

Further lines, with some results ahead:

IC50 (T2R4 [2]): 32.6 ± 9.5 µM
Calcium response by compound alone, T2R14 cells (T2R14): did not show any calcium response
Activation of T2R20 by compound alone (T2R20): activated T2R20
EC50 (T2R20): 65.3 ± 17.8 µM
Compound: N[C@@H](CCCCNCC(=O)O)C(=O)O [CML, Nε-Carboxymethyl-L-lysine]
Calcium mobilization by compound alone, T2R4 cells (T2R4 [2]): did not cause a significant increase in calcium mobilization
Inhibition of DPH-activated T2R14 calcium mobilization (T2R14): no significant effect in suppressing the DPH activation of T2R14

IC50 (T2R4 [2]): 10.5 ± 4.7 µM
Calcium response by compound alone, T2R14 cells (T2R14): did not show any calcium response
Activation of T2R20 by compound alone (T2R20): activated T2R20
EC50 (T2R20): 79.3 ± 29.2 µM
Compound: NC(CCCCn1cc[n+](CCCCC(N)C(=O)O)c1)C(=O)O (centres unmarked) [GOLD, glyoxal-derived lysine dimer]
Calcium mobilization by compound alone, T2R4 cells (T2R4 [2]): did not cause a significant increase in calcium mobilization
Inhibition of DPH-activated T2R14 calcium mobilization (T2R14): did not generate a reverse sigmoid curve to determine the IC50 value; also recorded: no dose-dependent inhibition observed

EC50 (T2R20): 50.7 ± 15.1 µM
Compound: O=C(O)c1cc(=O)c2c(OCC(O)COc3cccc4oc(C(=O)O)cc(=O)c34)cccc2o1 [cromolyn, reference compound]

Solubility in calcium assay buffer [3]: insoluble or only slightly soluble
Compound: Pentosidine

Reference: publication PMC6628017, “Advanced Glycation End-Products Can Activate or Block Bitter Taste Receptors” (Nutrients, 2019)
